In publication doi:10.1101/2024.06.10.598330v1 (biorxiv, 2024) one finds Km data, which are given here for four molecules.

The subject of assay [1] is 'Concord' ortholog of 4g02123. Nature of the assay: MTase-Glo luminescence methyltransferase assay. Format: biochemical, Vitis labrusca. The following applies: 20 μM SAM, pH 8.0, 37 °C.
The next assay deals with Vv4g02123. Particulars: 20 μM SAM, pH 8.0, 37 °C; substrate inhibition fit.
Another assay deals with T1, Vv4g02169 (Vitis vinifera, UniProt D7SNV7).
T1 sequence (D7SNV7 1-364): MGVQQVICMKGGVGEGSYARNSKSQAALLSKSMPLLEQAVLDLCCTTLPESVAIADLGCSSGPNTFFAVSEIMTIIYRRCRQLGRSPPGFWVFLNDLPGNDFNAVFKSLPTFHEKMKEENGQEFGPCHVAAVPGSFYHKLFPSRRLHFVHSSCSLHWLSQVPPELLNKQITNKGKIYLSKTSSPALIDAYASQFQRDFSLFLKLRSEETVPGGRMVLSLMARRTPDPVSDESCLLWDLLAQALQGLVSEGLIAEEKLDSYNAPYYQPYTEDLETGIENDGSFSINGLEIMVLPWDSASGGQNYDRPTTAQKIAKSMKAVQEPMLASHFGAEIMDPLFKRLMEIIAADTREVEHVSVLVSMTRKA
Nature of the assay: MTase-Glo luminescence methyltransferase assay. The following applies: 150 μM SAM, pH 8.0, 37 °C. The assay is classed as biochemical.

For `CNc1ccccc1C(=O)O` [N-methyl AA], the results for the Km (in assay [1]; with Vv4g02123) were 120 µM and 12 µM, respectively. Regarding `Nc1ccccc1C(=O)O` [anthranilate], the Km – broadly, the substrate concentration at which the rate is half of its maximum – is 47 µM in assay [1] and 160 µM on Vv4g02169. As for `O=C(O)c1ccccc1` [benzoic acid], in assay [1], the Km turned out to be 23 µM. As to `O=C(O)c1ccccc1O` [salicylic acid], in assay [1] (substrate inhibition fit), the Km was found to be 3.8 µM.
